# Results taken from US9744175B2, “Compositions of combinations of non-covalent DNA binding agents and anti-cancer and/or anti-inflammatory agents and their use in disease treatment” (INDUS PHARMACEUTICALS, INC., priority 2012, dated 2017).
# What was measured:
# [1] = tested on: homologous recombination repair deficiencies; assay: Synthetic lethality with homologous recombination repair deficiencies (FIG. 8); assay type: cell-based; details: FIG. 8 legend
# HCT116 (mlh−) = assay: siRNA inhibition of p53 and REV functions, alamar blue growth inhibition; assay type: cell-based, human; details: for IC50: no siRNA knock out, read-out: IC50, Control; for Fold improvement in IC50, p53: p53 siRNA vs control; for Fold improvement in IC50, rev: rev siRNA vs control
# Procedure: (§1) siRNA specific for different genes is purchased from Dharmacon (Thermo. Fisher Scientific Dharmacon Products, Lafayette, Colo. 80026) and the protocol recommended by the supplier is utilized. Confluent cells are trypsinized and 5000 cells are seeded in a well in the presence or absence of siRNA in 100 μL medium. The cells are incubated with siRNA for two days. A non-covalent DNA binding agent of the invention is added in a 10 μL volume and incubated for another 48 hours. After treatment with the agent, the medium is replaced with 1% alamar blue containing medium to measure fluorescence after two hours.
# as §1, with “from Dharmacon (Thermo Fisher Scientific” for “from Dharmacon (Thermo. Fisher Scientific”, “two hours. […] The results are presented in FIGS. 14-18 (SEQ ID NO:3-12, respectively) and Table 7.” for “two hours.”
# MDA231 = assay: Growth inhibition in tumor cell lines (Table 2); assay type: cell-based, human; details: MDA231, breast, KRAS & BRAF (ERK+)
# Procedure: (§2) Three novel non-covalent DNA binding agents of the invention, NSC 718813, NSC 723734 and NSC 726260, are tested in five different EGFR-resistant, K-Ras mutant cancer cell lines. These cell lines represent colorectal (SW480, SW620 and HCT116) and breast cancer (MDA-MB-231 and […]).
# (§3) The in vitro assays to evaluate the anticancer potential of non-covalent DNA binding agents were measured by using one or more of the assays described below.
# (§4) Tumor cells are plated in 96 well plates at a density of 8,000 to 10,000 cells per well in 100 uL volume and grown overnight. On the second day, the cells are supplemented with medium containing an appropriate dilution of the compounds to be tested. The cells are treated with the test compounds for two more days and the growth medium was replaced with fresh medium containing 3% Alamar Blue, incubated for 2-3 hours and plates are read in a SpectraMax Gemini XS fluorescence plate reader (Molecular Devices).
# HCT116 = assay: Growth inhibition in tumor cell lines (Table 2); assay type: cell-based, human; details: HCT116, colon, KRAS mutation, MLH1 deficiency
# Procedure: as §2, §3, §4
# SW480 = assay: Growth inhibition in tumor cell lines (Table 2); assay type: cell-based, human; details: SW480, colon, KRAS mutation
# Procedure: as §2, §3, §4
# SW620 = assay: Growth inhibition in tumor cell lines (Table 2); assay type: cell-based, human; details: SW620, colon, KRAS mutation
# Procedure: as §2, §3, §4
# MDA-MB-468 = assay: Growth inhibition in tumor cell lines (Table 2); assay type: cell-based, human; details: MDA-MB-468, breast, ERK+ (EGFR over expression), PTEN deficiency
# Procedure: as §2, §3, §4
# CEM = assay: Growth inhibition in tumor cell lines (Table 2); assay type: cell-based, human; details: leukemia, PTEN deficiency
# Procedure: as §2, §3, §4
# H1299 (p53−) = assay: siRNA inhibition of MMR functions, alamar blue growth inhibition; assay type: cell-based, human; details: for Fold improvement in IC50, mlh1: mlh1 siRNA vs control; for Fold improvement in IC50, msh2: msh2 siRNA vs control; for IC50: no siRNA knock out, read-out: IC50, Control
# Procedure: as §1
# as §1, with “from Dharmacon (Thermo Fisher Scientific” for “from Dharmacon (Thermo. Fisher Scientific”, “two hours. […] The results are presented in FIGS. 14-18 (SEQ ID NO:3-12, respectively) and Table 7.” for “two hours.”
# yeast rad57 mutation = assay: Alamar Blue cell survival assay in yeast cells; assay type: cell-based
# Procedure: The cells are diluted 100-fold in yeast complete medium. 100 μL of diluted cells are seeded in 96 well plates with or without a non-covalent DNA binding compound and incubated for 24 hours at 30° C. The following day, an equal volume of yeast complete medium containing 1% alamar blue is added and incubated at 30° C. for two hours. Fluorescence intensity is measured in a fluorescent reader to calculate the inhibition effect of non-covalent DNA binding agents in mutant and wild type yeast cells.
# Yeast cells that carry mutations in different genes involved in homologous recombination (rad 50, rad51, rad52, and rad57) and nucleotide excision/double strand repair (rad1) are grown to stationary culture overnight.
# [2] = tested on: tumor cells that have K-RAS mutations and/or PTEN or mismatch repair gene deficiencies; assay: Growth inhibition, summary of potency in text; assay type: cell-based, human; details: among the three compounds tested, tumor cell lines
# Procedure: as §2, §3, §4
SMILES,synthetic lethality with homologous recombination repair deficiencies [1],IC50 (HCT116 (mlh−)) [nM],"Fold improvement in IC50, p53 (HCT116 (mlh−)) [fold]","Fold improvement in IC50, rev (HCT116 (mlh−)) [fold]",IC50 (MDA231) [nM],IC50 (HCT116) [nM],IC50 (SW480) [nM],IC50 (SW620) [nM],IC50 (MDA-MB-468) [nM],IC50 (CEM) [nM],"Fold improvement in IC50, mlh1 (H1299 (p53−)) [fold]","Fold improvement in IC50, msh2 (H1299 (p53−)) [fold]",IC50 (H1299 (p53−)) [nM],IC50 (yeast rad57 mutation) [nM],IC50 [2] [nM]
COc1cc2c(cc1OCCCCN1CCN(CCCCOc3cc4c(cc3OC)C(=O)N3CCC[C@H]3C=N4)CC1)N=C[C@@H]1CCCN1C2=O [NSC 723734],synthetic lethal,300,2.2,2.2,394,160,575,175 ± 25,22 ± 0.7,49 ± 0.8,2.0,2.6,900,,
COc1cc2c(cc1OCCCC(=O)Nc1ccc3ccc4cccc5ccc1c3c45)N=C[C@@H]1CCCN1C2=O [NSC 726260],synthetic lethal,750,3.8,5.0,501,550,1080,1050 ± 50,364,161 ± 0.4,,,,300,~1000
COc1cc2c(cc1OCCCCCOc1cc3c(cc1OC)C(=O)N1CCC[C@H]1C(=O)N3)N=C[C@@H]1CCCN1C2=O [NSC 718813],,,12.5,7.1,54,17,48,236 ± 37.2,8 ± 1.2,51 ± 0.6,1.3,1.9,600,,
